Test results published in patent US11149033B2, “Heteroaryl compound, enantiomer, diastereomer or pharmaceutically acceptable salt thereof, and antiviral composition containing same as active ingredient” (priority 2016, dated 2021).

What was measured:
A/Perth/16/2009 (H3N2) = assay: Antiviral activity (drug efficacy evaluation by concentration) against A/Perth/16/2009 (H3N2); format: cell-based, A type influenza virus; conditions: Influenza A virus, H3N2, A/Perth/16/2009 (H3N2); read-out: EC50 A/Perth/16/2009 (H3N2)
[1] = CC50 B/Florida/04/2006, cytotoxicity in the B/Florida/04/2006 assay
[2] = CC50, third EC50/CC50 column pair (c7), beside the EC50 of c6

c1ccc(-c2ccccc2CSc2nnc(-c3cnn(-c4ccccc4)c3)o2)cc1 [Compound 36, 2-(([1,1′-biphenyl]-2-ylmethyl)thio)-5-(1-phenyl-1H-pyrazol-4-yl)-1,3,4-oxadiazole]
EC50 (A/Perth/16/2009 (H3N2)): > 50 µM
melting point: 114.2 °C
CC50 (in vitro; [1]): > 50 µM

Cc1ccccc1Sc1nnc(CCn2nc(C)c(Br)c2C)o1 [Compound 54, 2-(2-(4-bromo-3,5-dimethyl-1H-pyrazol-1-yl)ethyl)-5-(o-tolylthio)-1,3,4-oxadiazole]
melting point: 103.6 °C
CC50 (in vitro; [1]): > 50 µM

Cc1ccccc1CSc1ncc(C(=O)n2nc(C)c(Br)c2C)o1 [Compound 55, (4-bromo-3,5-dimethyl-1H-pyrazol-1-yl)(2-((2-methylbenzyl)thio)oxazol-5-yl)methanone]
melting point: 123.6 °C
CC50 (in vitro; [1]): > 50 µM

Cc1nn(C(=O)c2ccc(Sc3ccccc3C(C)C)o2)c(C)c1Br [Compound 56, (4-bromo-3,5-dimethyl-1H-pyrazol-1-yl)(5-((2-isopropylphenyl)thio)furan-2-yl)methanone]
melting point: 169.7 °C
CC50 (in vitro; [1]): > 50 µM

Cc1nn(C(=O)c2ccc(Oc3ccccc3C(C)C)o2)c(C)c1Br [Compound 57, (4-bromo-3,5-dimethyl-1H-pyrazol-1-yl)(5-(2-isopropylphenoxy)furan-2-yl)methanone]
melting point: 103.3 °C
CC50 (in vitro; [1]): > 50 µM

OC(c1cccc(-c2ccccc2)c1)c1nnc(Cc2ccc(Br)cc2)o1 (centres unmarked) [Compound 70, [1,1′-biphenyl]-3-yl(5-(4-bromobenzyl)-1,3,4-oxadiazol-2-yl)methanol]
EC50 (A/Perth/16/2009 (H3N2)): 37.5 µM
melting point: 137.6 °C
CC50 (in vitro; [1]): > 50 µM

Cc1cccc(C)c1Nc1nnc(C(O)c2ccccc2)o1 (centres unmarked) [Compound 77, (5-((2,6-dimethylphenyl)amino)-1,3,4-oxadiazol-2-yl)(phenyl)methanol]
melting point: 179 °C
CC50 (in vitro; [1]): > 50 µM

Cc1cccc(C)c1Nc1nnc(C(=O)c2ccc(F)c(Cl)c2)o1 [Compound 78, (3-chloro-4-fluorophenyl)(5-((2,6-dimethylphenyl)amino)-1,3,4-oxadiazol-2-yl)methanone]
melting point: 252.8 °C
CC50 (in vitro; [1]): > 50 µM

CC(C)c1ccccc1/C=C/c1nnc(Cc2ccc(OC(F)(F)F)cc2)o1 [Compound 81, (E)-2-(2-isopropylstyryl)-5-(4-(trifluoromethoxy)benzyl)-1,3,4-oxadiazole]
melting point: 91.6 °C
CC50 (in vitro; CC50, beside the EC50 of c2): > 50 µM
CC50 (in vitro; CC50, beside the EC50 of c4): > 50 µM
CC50 (in vitro; [2]): > 50 µM

Brc1ccc(Nc2nnc(/C=C/c3cccc4ncccc34)o2)cc1 [Compound 121, (E)-N-(4-bromophenyl)-5-(2-(quinolin-5-yl)vinyl)-1,3,4-oxadiazol-2-amine]
melting point: 246.5 °C
CC50 (in vitro; CC50, beside the EC50 of c2): > 50 µM
CC50 (in vitro; CC50, beside the EC50 of c4): > 50 µM
CC50 (in vitro; [2]): > 50 µM

Brc1ccc(Cc2nnc(/C=C/c3ccccc3Br)o2)cc1 [Compound 128, (E)-2-(4-bromobenzyl)-5-(2-bromostyryl)-1,3,4-oxadiazole]
melting point: 156.1 °C
CC50 (in vitro; CC50, beside the EC50 of c2): > 50 µM
CC50 (in vitro; CC50, beside the EC50 of c4): > 50 µM
CC50 (in vitro; [2]): > 50 µM

Clc1ccc(/C=C/c2nnc(Cc3ccc(Br)cc3)o2)cc1Cl [Compound 149, 2-(4-bromobenzyl)-5-(3,4-dichlorostyryl)-1,3,4-oxadiazole]
melting point: 164.5 °C
CC50 (in vitro; CC50, beside the EC50 of c2): > 50 µM
CC50 (in vitro; CC50, beside the EC50 of c4): > 50 µM
CC50 (in vitro; [2]): > 50 µM

Clc1ccc(-c2ccccc2/C=C/c2nnc(Cc3ccc(Br)cc3)o2)cc1 [Compound 153, 2-(4-bromobenzyl)-5-(2-(4′-chloro-[1,1′-biphenyl]-2-yl)vinyl)-1,3,4-oxadiazole]
melting point: 123.7 °C
CC50 (in vitro; CC50, beside the EC50 of c2): > 50 µM
CC50 (in vitro; CC50, beside the EC50 of c4): > 50 µM
CC50 (in vitro; [2]): > 50 µM

Brc1ccc(Cc2nnc(-c3cc4ccccc4o3)o2)cc1 [Compound 156, 2-(benzofuran-2-yl)-5-(4-bromobenzyl)-1,3,4-oxadiazole]
melting point: 145.7 °C
CC50 (in vitro; CC50, beside the EC50 of c2): > 50 µM
CC50 (in vitro; CC50, beside the EC50 of c4): > 50 µM
CC50 (in vitro; [2]): > 50 µM

Clc1ccc2oc(-c3nnc(Cc4ccc(Br)cc4)o3)cc2c1 [Compound 157, 2-(4-bromobenzyl)-5-(5-chlorobenzofuran-2-yl)-1,3,4-oxadiazole]
melting point: 149.7 °C
CC50 (in vitro; CC50, beside the EC50 of c2): > 50 µM
CC50 (in vitro; CC50, beside the EC50 of c4): > 50 µM
CC50 (in vitro; [2]): > 50 µM

Clc1ccccc1/C=C/c1nnc(Cc2ccc(Br)cc2)o1 [Compound 166, 2-(4-bromobenzyl)-5-(2-chlorostyryl)-1,3,4-oxadiazole]
melting point: 136.3 °C
CC50 (in vitro; CC50, beside the EC50 of c2): > 50 µM
CC50 (in vitro; CC50, beside the EC50 of c4): > 50 µM
CC50 (in vitro; [2]): > 50 µM

Clc1cccc(/C=C/c2nnc(Cc3ccc(Br)cc3)o2)c1 [Compound 167, 2-(4-bromobenzyl)-5-(3-chlorostyryl)-1,3,4-oxadiazole]
melting point: 105.1 °C
CC50 (in vitro; CC50, beside the EC50 of c2): > 50 µM
CC50 (in vitro; CC50, beside the EC50 of c4): > 50 µM
CC50 (in vitro; [2]): > 50 µM

Clc1cccc(Cl)c1/C=C/c1nnc(Cc2ccc(Br)cc2)o1 [Compound 168, 2-(4-bromobenzyl)-5-(2,6-dichlorostyryl)-1,3,4-oxadiazole]
melting point: 139.3 °C
CC50 (in vitro; CC50, beside the EC50 of c2): > 50 µM
CC50 (in vitro; CC50, beside the EC50 of c4): > 50 µM
CC50 (in vitro; [2]): > 50 µM

Cc1cc(Cc2nnc(/C=C/c3ccccc3C(C)C)o2)ccc1Br [Compound 172, 2-(4-bromo-3-methylbenzyl)-5-(2-isopropylstyryl)-1,3,4-oxadiazole]
melting point: 117.1 °C
CC50 (in vitro; CC50, beside the EC50 of c2): > 50 µM
CC50 (in vitro; CC50, beside the EC50 of c4): > 50 µM
CC50 (in vitro; [2]): > 50 µM

CC(C)c1ccccc1/C=C/c1nc(Cc2ccc(Br)cc2)no1 [Compound 175, (E)-3-(4-bromobenzyl)-5-(2-isopropylstyryl)-1,2,4-oxadiazole]
melting point: 81.5 °C
CC50 (in vitro; CC50, beside the EC50 of c2): > 50 µM
CC50 (in vitro; CC50, beside the EC50 of c4): > 50 µM
CC50 (in vitro; [2]): > 50 µM

Cc1cc(Cc2nnc(/C=C/c3ccc(F)cc3Cl)o2)ccc1Br [Compound 176, (E)-2-(4-bromo-3-methylbenzyl)-5-(2-chloro-4-fluorostyryl)-1,3,4-oxadiazole]
melting point: 119.9 °C
CC50 (in vitro; CC50, beside the EC50 of c2): 6.53 µM
CC50 (in vitro; CC50, beside the EC50 of c4): > 50 µM
CC50 (in vitro; [2]): > 50 µM

Fc1ccc(/C=C/c2nnc(Cc3cccc(Br)c3)o2)c(F)c1 [Compound 189, 2-(3-bromobenzyl)-5-(2,4-difluorostyryl)-1,3,4-oxadiazole]
melting point: 87.7 °C
CC50 (in vitro; CC50, beside the EC50 of c2): > 50 µM
CC50 (in vitro; CC50, beside the EC50 of c4): > 50 µM
CC50 (in vitro; [2]): > 50 µM

Fc1cc(Cl)ccc1/C=C/c1nnc(Cc2cccc(Br)c2)o1 [Compound 190, 2-(3-bromobenzyl)-5-(4-chloro-2-fluorostyryl)-1,3,4-oxadiazole]
melting point: 107.2 °C
CC50 (in vitro; CC50, beside the EC50 of c4): 40.1 µM

Fc1ccc(/C=C/c2nnc(Cc3ccc(F)c(Br)c3)o2)c(Cl)c1 [Compound 207, 2-(3-bromo-4-fluorobenzyl)-5-(2-chloro-4-fluorostyryl)-1,3,4-oxadiazole]
melting point: 123 °C
CC50 (in vitro; CC50, beside the EC50 of c2): > 50 µM
CC50 (in vitro; CC50, beside the EC50 of c4): > 50 µM
CC50 (in vitro; [2]): > 50 µM

Cc1ccc(Br)cc1Cc1nnc(/C=C/c2ccc(F)cc2Cl)o1 [Compound 282, 2-(5-bromo-2-methylbenzyl)-5-(2-chloro-4-fluorostyryl)-1,3,4-oxadiazole]
melting point: 169.3 °C

Fc1ccc(/C=C/c2nnc(Cc3cc(Br)ccn3)o2)c(Cl)c1 [Compound 283, 2-((4-bromopyridin-2-yl)methyl)-5-(2-chloro-4-fluorostyryl)-1,3,4-oxadiazole]
melting point: 149.5 °C

Fc1cc(F)c(/C=C/c2nnc(Cc3cccc(Br)c3)o2)c(Br)c1 [Compound 290, 2-(2-bromo-4,6-difluorostyryl)-5-(3-bromobenzyl)-1,3,4-oxadiazole]
melting point: 118.2 °C

Fc1ccc(/C=C/c2nnc(Cc3cccc(Cl)c3F)o2)c(Cl)c1 [Compound 291, 2-(3-chloro-2-fluorobenzyl)-5-(2-chloro-4-fluorostyryl)-1,3,4-oxadiazole]
melting point: 118.1 °C

Fc1cc(Br)cc(Cc2nnc(/C=C/c3ccc(F)cc3Cl)o2)c1 [Compound 292, 2-(3-bromo-5-fluorobenzyl)-5-(2-chloro-4-fluorostyryl)-1,3,4-oxadiazole]
melting point: 143 °C

Fc1ccc(/C=C/c2nnc(Cc3cccc(Br)c3F)o2)c(Cl)c1 [Compound 293, 2-(3-bromo-2-fluorobenzyl)-5-(2-chloro-4-fluorostyryl)-1,3,4-oxadiazole]
melting point: 135.8 °C

Cc1c(Br)cccc1Cc1nnc(/C=C/c2ccc(F)cc2Cl)o1 [Compound 294, 2-(3-bromo-2-methylbenzyl)-5-(2-chloro-4-fluorostyryl)-1,3,4-oxadiazole]
melting point: 158.3 °C

Cc1ccc2cccc(Cc3nnc(/C=C/c4ccc(F)cc4Cl)o3)c2n1 [Compound 295, 2-(2-chloro-4-fluorostyryl)-5-((2-methylquinolin-8-yl)methyl)-1,3,4-oxadiazole]
melting point: 191.2 °C

COc1ccc2cccc(Cc3nnc(/C=C/c4ccc(F)cc4Cl)o3)c2c1 [Compound 298, 2-(2-chloro-4-fluorostyryl)-5-((7-methoxynaphthalen-1-yl)methyl)-1,3,4-oxadiazole]
melting point: 179.9 °C

Fc1ccc(/C=C/c2nnc(Cc3cccc(C(F)F)c3)o2)c(Cl)c1 [Compound 299, 2-(2-chloro-4-fluorostyryl)-5-(3-(difluoromethyl)benzyl)-1,3,4-oxadiazole]
melting point: 108.1 °C

Cc1ccc(Cc2nnc(/C=C/c3ccc(F)cc3Cl)o2)cc1Cl [Compound 300, 2-(2-chloro-4-fluorostyryl)-5-(3-chloro-4-methylbenzyl)-1,3,4-oxadiazole]
melting point: 161.4 °C

Cc1ccc(Cc2nnc(/C=C/c3ccc(F)cc3N(C)CCc3ccccc3)o2)cc1Br [Compound 305, 2-(2-(5-(3-bromo-4-methylbenzyl)-1,3,4-oxadiazol-2-yl)vinyl)-5-fluoro-N-methyl-N-phenethylaniline]
melting point: 80.7 °C
